Where “and” joins values, the source holds several entries; their conditions need not be identical. Equal values may be shown once. Read-outs that look alike come from different tables or passages of the source.
Experiments:
[1] = Pharmacokinetic study of OSIM in rats, alone or after voriconazole, itraconazole or fluconazole pretreatment (plasma concentration by HPLC-MS/MS); format: in vivo, Sprague-Dawley rats; parameters: Conc. (plasma): unit not given here; conditions: for Conc. (plasma): individual rats; for AUC(0-inf) / AUC(0-t) / CL/F / Cmax / Tmax / Vd/F / half-life / MRT inf: male, Sprague-Dawley, rat, plasma, po, 10 mg/kg; for Vd/F: read-out: Vz/F; for MRT inf: read-out: MRT0–inf
Method: A liquid chromatography with tandem mass spectrometry (HPLC-MS/MS) system coupled to a JasperTM HPLC and Triple […] and equipped with an electrospray ionization (ESI) interface source (AB Sciex, Redwood City, CA, USA) was used for the analysis. […] Waters Corp., Milford, MA, USA) maintained at 45 °C. Mobile phase A was 0.2% formic acid in water, and mobile phase B was acetonitrile. […] Carry-over was minimized with methanol-acetonitrile-isopropanol-water solution (1:1:1:1, v/v/v/v) before and after the injection procedure. […] Subsequently, all samples were vortex-mixed for 30 s and were centrifuged at 14,000 × g for 10 min. Finally, each sample was reconstituted with an aliquot of mobile phase A. The sample was transferred to a 0.8 mL 96-well plate, of which 5 μL was injected into HPLC-MS/MS system for analysis. Twenty-four adult male Sprague-Dawley rats (220 ± 20 g) with specific pathogen free were supplied by the Laboratory Animal Center of Zhejiang Provincial People's Hospital. […] The study was performed in accordance with the Animal Care and Use Committee of Zhejiang Provincial People's Hospital (number: […], and FCZ were prepared in 0.3% carboxymethyl cellulose sodium (CMC-Na). After 12 h of fasting and free water consumption, the rats were randomly separated into four groups, and the sample size was based on a similar study using as few rats as possible (n = 6): control (equivalent volume of 0.3% CMC-Na), VCZ (20 mg/kg), ICZ (20 mg/kg), and FCZ (20 mg/kg) groups. Only those responsible for treatment management researchers know this group well. Each group was housed in a single cage. The rats in the four groups were orally dosed once daily with 0.3% CMC-Na, VCZ, ICZ, or FCZ, respectively; they reached steady-state exposure after five continuous days of dosing. […] All rats received an oral gavage dose of approximately equivalent volume treatment regimens (one mL). Rats were restrained on the rat fixator on the laboratory bench. […] Experimental data were given as mean ± standard deviation (SD). The mean concentration levels of OSIM versus time profile were drawn using GraphPad Prism 9.4 (GraphPad Software, Inc., San Diego, CA, USA). […] SPSS 26.0 was used for statistical analysis (IBM, Armonk, USA). Significant differences among the groups were identified using one-way ANOVA and Tukey test. P < 0.05 was considered significant.

[2] = parameters: method as in Brown et al., 2017; conditions: with ICZ compared with OSIM administered alone; ref Brown et al., 2017; cited from earlier work
[3] = ICZ group vs control, rats, P < 0.05
[4] = OSIM 10 mg/kg oral after fluconazole 20 mg/kg oral once daily for 5 days, rats, n = 6
[5] = OSIM 10 mg/kg oral after voriconazole 20 mg/kg oral once daily for 5 days, rats, n = 6
[6] = co-administered with itraconazole vs control, rats
[7] = co-administration with VCZ vs OSIM alone, rats
[8] = co-administration with fluconazole vs control, rats
[9] = OSIM 10 mg/kg oral after itraconazole 20 mg/kg oral once daily for 5 days, rats, n = 6
[10] = OSIM 10 mg/kg oral, control (0.3% CMC-Na), rats, n = 6, mean ± SD

C=CC(=O)Nc1cc(Nc2nccc(-c3cn(C)c4ccccc34)n2)c(OC)cc1N(C)CCN(C)C [OSIM, Osimertinib]
Conc. (plasma) ([1]; Con group (OSIM alone), Time 0.25): 8.0671 and 11.9979
Conc. (plasma) ([1]; Con group (OSIM alone), Time 0.5): 12.1988 and 19.9452
Conc. (plasma) ([1]; Con group (OSIM alone), Time 1): 26.2008 and 25.1352
Conc. (plasma) ([1]; Con group (OSIM alone), Time 2): 34.4763 and 31.6327
Conc. (plasma) ([1]; Con group (OSIM alone), Time 4): 32.976 and 28.9864
Conc. (plasma) ([1]; Con group (OSIM alone), Time 5): 24.2861 and 21.3664
Conc. (plasma) ([1]; Con group (OSIM alone), Time 6): 16.055 and 19.5716 and 16.4633
Conc. (plasma) ([1]; Con group (OSIM alone), Time 8): 9.5939 and 12.9324 and 12.4752
Conc. (plasma) ([1]; Con group (OSIM alone), Time 12): 3.1238 and 5.2228 and 5.1031
Conc. (plasma) ([1]; Con group (OSIM alone), Time 24): 0.3493 and 0.667
Conc. (plasma) ([1]; Con group (OSIM alone), Time 48): 0.1948 and 0.7004
AUC0–t of OSIM enhanced by ([1]; FCZ group vs control, rats): ~1.01 fold
Cmax of OSIM enhanced by ([1]; FCZ group vs control, rats): approximately 0.53 fold
reduction of Cl/F of OSIM ([1]; FCZ group vs control, rats): 49.49%
reduction of Vz/F of OSIM ([1]; FCZ group vs control, rats): 55.89%
Conc. (plasma) ([1]; Flu group (fluconazole pretreatment), Time 0.25): 7.8097 and 15.8697
Conc. (plasma) ([1]; Flu group (fluconazole pretreatment), Time 0.5): 11.781 and 29.3217
Conc. (plasma) ([1]; Flu group (fluconazole pretreatment), Time 1): 19.1216
Conc. (plasma) ([1]; Flu group (fluconazole pretreatment), Time 2): 33.0063 and 43.3299
Conc. (plasma) ([1]; Flu group (fluconazole pretreatment), Time 3): 39.5899 and 53.0362
Conc. (plasma) ([1]; Flu group (fluconazole pretreatment), Time 4): 43.6983 and 40.9109
Conc. (plasma) ([1]; Flu group (fluconazole pretreatment), Time 5): 33.9054 and 36.7921
Conc. (plasma) ([1]; Flu group (fluconazole pretreatment), Time 6): 33.9688
Conc. (plasma) ([1]; Flu group (fluconazole pretreatment), Time 8): 18.8994 and 29.246 and 22.772
Conc. (plasma) ([1]; Flu group (fluconazole pretreatment), Time 12): 8.5799 and 18.5501 and 14.3797
Conc. (plasma) ([1]; Flu group (fluconazole pretreatment), Time 24): 1.2033 and 2.0928 and 2.1757
Conc. (plasma) ([1]; Flu group (fluconazole pretreatment), Time 48): 0.3201 and 0.2978
decrease in Vz/F of OSIM [1, 3]: 38.08%
decrease in t1/2 of OSIM [1, 3]: 25.41%
Conc. (plasma) ([1]; Itr group (itraconazole pretreatment), Time 0.25): 5.2753 and 10.1717
Conc. (plasma) ([1]; Itr group (itraconazole pretreatment), Time 0.5): 2.137 and 22.1484
Conc. (plasma) ([1]; Itr group (itraconazole pretreatment), Time 1): 14.402 and 30.439
Conc. (plasma) ([1]; Itr group (itraconazole pretreatment), Time 2): 19.1571 and 37.1482
Conc. (plasma) ([1]; Itr group (itraconazole pretreatment), Time 3): 31.5023
Conc. (plasma) ([1]; Itr group (itraconazole pretreatment), Time 4): 27.9801
Conc. (plasma) ([1]; Itr group (itraconazole pretreatment), Time 5): 22.7144 and 26.9275
Conc. (plasma) ([1]; Itr group (itraconazole pretreatment), Time 6): 27.5418 and 15.763 and 19.3207
Conc. (plasma) ([1]; Itr group (itraconazole pretreatment), Time 8): 24.0911 and 10.4766 and 13.0808
Conc. (plasma) ([1]; Itr group (itraconazole pretreatment), Time 12): 4.7714 and 7.383
Conc. (plasma) ([1]; Itr group (itraconazole pretreatment), Time 24): 1.7983 and 0.7083 and 1.0943
Conc. (plasma) ([1]; Itr group (itraconazole pretreatment), Time 48): 0.2444 and 0.2377
MRT0–inf [1, 4]: 8.32 ± 0.47 h
t1/2 [1, 4]: 5.75 ± 0.25 h
t1/2 [1, 5]: 3.82 ± 0.34 h
decrease in Cl/F of OSIM ([1]; VCZ group vs control, rats): 37.74%
decrease in Vz/F of OSIM ([1]; VCZ group vs control, rats): 64.03%
decrease in t1/2 of OSIM ([1]; VCZ group vs control, rats): 42.56%
other parameters (Cmax, Tmax, AUC, MRT, and Cl/F) compared with the control group ([1]; administration of OSIM with ICZ, rats): not significantly different
increase in AUC0–t of OSIM [1, 6]: 34.80%
increase in Cmax of OSIM [1, 6]: 13.91%
effect on t1/2 and Tmax of orally administered OSIM ([1]; co-administration with FCZ vs control, rats): did not significantly alter
increase in AUC0–t of OSIM [1, 7]: 62.56%
increase in Cmax of OSIM [1, 7]: 58.04%
increase in AUC0–t of OSIM [1, 8]: 100.98%
increase in Cmax of OSIM [1, 8]: 53.45%
AUC(0-inf) [1, 4]: 524 ± 92.4 ng·h/mL
AUC(0-t) [1, 4]: 521 ± 92.5 ng·h/mL
CL/F [1, 4]: 325 mL/min/kg
Cmax [1, 4]: 50.8 ± 8.41 ng/mL
Tmax [1, 4]: 3.17 ± 0.98 h
Vd/F [1, 4]: 162 ± 26.7 L/kg
AUC(0-inf) [1, 9]: 357 ± 99.7 ng·h/mL
AUC(0-t) [1, 9]: 350 ± 96.3 ng·h/mL
CL/F [1, 9]: 504 mL/min/kg
Cmax [1, 9]: 37.7 ± 11.5 ng/mL
Tmax [1, 9]: 3.83 ± 1.6 h
half-life [1, 9]: 4.96 ± 1.1 h
MRT inf [1, 9]: 7.51 ± 0.6 h
Vd/F [1, 9]: 228 ± 127 L/kg
AUC(0-inf) [1, 5]: 422 ± 57.9 ng·h/mL
AUC(0-t) [1, 5]: 422 ± 58.4 ng·h/mL
CL/F [1, 5]: 401 mL/min/kg
Cmax [1, 5]: 52.3 ± 10.5 ng/mL
Tmax [1, 5]: 2.83 ± 0.41 h
MRT inf [1, 5]: 6.83 ± 0.36 h
Vd/F [1, 5]: 132 ± 17.9 L/kg
AUC(0-inf) [1, 10]: 264 ± 34.4 ng·h/mL
AUC(0-t) [1, 10]: 259 ± 33.1 ng·h/mL
CL/F [1, 10]: 644 mL/min/kg
Cmax [1, 10]: 33.1 ± 3.66 ng/mL
Tmax [1, 10]: 2.33 ± 0.52 h
half-life [1, 10]: 6.65 ± 0.48 h
MRT inf [1, 10]: 7.61 ± 0.74 h
Vd/F [1, 10]: 368 ± 36.3 L/kg
Conc. (plasma) ([1]; vor group (voriconazole pretreatment), Time 0.25): 7.2019 and 17.8367
Conc. (plasma) ([1]; vor group (voriconazole pretreatment), Time 0.5): 35.8513
Conc. (plasma) ([1]; vor group (voriconazole pretreatment), Time 1): 38.47
Conc. (plasma) ([1]; vor group (voriconazole pretreatment), Time 2): 40.5898 and 38.9958
Conc. (plasma) ([1]; vor group (voriconazole pretreatment), Time 3): 68.6321 and 46.961
Conc. (plasma) ([1]; vor group (voriconazole pretreatment), Time 4): 35.6688 and 44.311
Conc. (plasma) ([1]; vor group (voriconazole pretreatment), Time 5): 28.7864 and 35.6992
Conc. (plasma) ([1]; vor group (voriconazole pretreatment), Time 6): 35.4312 and 22.8434 and 29.124
Conc. (plasma) ([1]; vor group (voriconazole pretreatment), Time 8): 20.9535 and 15.9897 and 16.5811
Conc. (plasma) ([1]; vor group (voriconazole pretreatment), Time 12): 10.8434 and 7.3402 and 9.397
Conc. (plasma) ([1]; vor group (voriconazole pretreatment), Time 24): 0.9533 and 0.6206
Conc. (plasma) ([1]; vor group (voriconazole pretreatment), Time 48): 0.0227 and 0.021
increase in AUC0–t of OSIM [2]: approximately 8%
